Counter-ions that a name gives are not always drawn. Like-named read-outs stand apart in the source and are kept apart here.
Columns and labels:
[1] = molecular target: T1, hRIPK1 (aa 1-375) fusion protein (Homo sapiens, UniProt Q13546); assay: ADP-Glo kinase assay, RIPK1 autophosphorylation; type: biochemical
T1 construct: hRIPK1 (aa 1-375) fusion protein
T1 sequence (Q13546 1-375): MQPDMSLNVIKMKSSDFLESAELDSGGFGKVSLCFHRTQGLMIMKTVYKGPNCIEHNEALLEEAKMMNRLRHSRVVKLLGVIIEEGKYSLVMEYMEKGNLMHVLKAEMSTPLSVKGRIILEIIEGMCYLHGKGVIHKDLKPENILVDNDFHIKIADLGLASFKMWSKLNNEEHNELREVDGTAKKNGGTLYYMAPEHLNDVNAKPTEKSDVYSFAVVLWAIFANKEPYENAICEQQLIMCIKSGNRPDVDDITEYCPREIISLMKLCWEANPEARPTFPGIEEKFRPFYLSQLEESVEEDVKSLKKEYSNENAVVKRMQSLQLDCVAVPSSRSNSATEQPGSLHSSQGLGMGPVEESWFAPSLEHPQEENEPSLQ
Description: Evaluation of Receptor-Interacting Protein Kinase 1 Inhibition.
The catalytic activity of RIPK1 was measured by monitoring the conversion of Adenosine triphosphate (ATP) to Adenosine diphosphate (ADP) due to autophosphorylation using an ADP-Glo kinase kit (Promega, catalog no. V9104).
After another 240 minutes incubation at room temperature, 5 μl Promega ADP-Glo reagent I were added to quench the reaction and deplete unconsumed ATP. After an incubation period of 30 minutes, 10 μl Promega ADP-Glo detection reagent II were added resulting in conversion of ADP to ATP, which generates a light-reaction between luciferase and luciferin. Luminescence was quantified after 30 minutes with a Pherastar FS (BMG LABTECH, Ortenberg).
The adjustment was obtained by nonlinear regression using the Levenberg Marquardt algorithm.

U937 cells = assay: Cellular assay in U937 cells on cell death (necroptosis), TNFα/zVAD.fmk; type: cell-based
Description: Cellular Assay in U937 Cells to Measure the Activity of RIPK1-Inhibitors on Cell Death (Necroptosis).
Cell death was quantified in 96 well plates by determination of the amount of live cell using a CellTiter 96 AQueous reagent (Promega), a calorimetric method to measure the amount of live cells by reducing tetrazolium compound [3-(4,5-dimethylthiazol-2-yl)-5-(3-carboxymethoxyphenyl)-2-(4-sulfophenyl)-2H-tetrazolium, inner salt; MTS] into formazan. Absorbance of formazan was read at 490 nm. The inhibitory activity of the test compound was quantified in a concentration response curve (CRC) experiment. Compounds were obtained as 10 mM stock solutions and were diluted 1 to 10 volumes with DMSO to yield a 1 mM solution. From this solution 2 μl were diluted with 998 μl growth medium. 100 μl of 2 μM compound solution was further diluted sequentially with a dilution factor of 2.5 by adding 150 μl growth medium. A total of 10 concentrations were tested ranging from 10 μM to 0.26 nM or from 1 μM to 0.07 nM.
U937 cells were cultured in RPMI1640 Glutamax and 10% heat inactivated FBS. 50 μl cell suspension containing 1×10^6 cells/ml supplemented with 50 μM zVAD.fmk (Benzyloxycarbonyl-Val-Ala-Asp (OMe) fluoromethylketone) and 100 ng/ml recombinant human TNFα were dispensed in each well of a 96-well plate. 50 μl of compound dilutions (see above) were added and the cell suspension incubated overnight (18 to 24 hours) at 37° C., 5% CO2 in a humidified atmosphere (95% rH). High (no compound) and low control (no TNFα, zVAD.fmk) were tested with 7 replicates; all compound concentrations were tested in duplicates on each experimental plate.
CellTiter 96 Aqueous reagent was mixed (100 μl PMS (phenazine methosulfate) solution/2 ml MTS (3-(4,5-[…])-5-(3-carboxymethoxyphenyl)-2-(4-sulfophenyl)-2H-tetrazolium, inner salt) solution) and 20 μl were added per well. After 4 hours incubation at 37° C. (5% CO2 95% rH) optical density was measured at 490 nm on a microplate reader (Tecan Infinite M1000).
The % inhibition is expressed as percentage of the maximal inhibition value obtained in the absence of TNFα/zVAD.fmc.

[2] = Homo sapiens, U-937, Table 2, read-out: U937 IC50

| Molecule | IC50 ([1]; Table 1) | IC50 ([1]; Key compound table 4) | IC50 (U937 cells; Table 2, read-out: U937 IC50) | IC50 (U937 cells; [2]) | IC50 (U937 cells; Homo sapiens, U-937, Key compound table 4, read-out: U937 IC50 (uM) Mean) |
| --- | --- | --- | --- | --- | --- |
| 2-[(3R,4R)-4-[(3S)-3-(5-cyano-3-pyridyl)isoxazolidine-2-carbonyl]-3-fluoro-1-piperidyl]pyrimidine-4-carboxamide and 2-[(3S,4S)-4-[(3S)-3-(5-cyano-3-pyridyl)isoxazolidine-2-carbonyl]-3-fluoro-1-piperidyl]pyrimidine-4-carboxamide [Ex. 092] | 12.2 nM |  | 0.0502 µM |  |  |
| NC(=O)c1cc(N2CCC(C(=O)N3OCCC3C3CCCOC3)CC2)ncn1 (racemic) [Ex. 023*, 6-[4-[3-Tetrahydropyran-3-ylisoxazolidine-2-carbonyl]-1-piperidyl]pyrimidine-4-carboxamide TFA salt] | 797 nM |  |  | 4.67 µM |  |
| NC(=O)c1ccnc(N2CCC(C(=O)N3OCCC3c3cncc(CO)c3)CC2)n1 (racemic) [Ex. 025*, 2-[4-[3-[5-(Hydroxymethyl)-3-pyridyl]isoxazolidine-2-carbonyl]-1-piperidyl]pyrimidine-4-carboxamide] | 51.6 nM |  |  | 0.498 µM |  |
| NC(=O)c1cncc(C2CCON2C(=O)C2CCN(c3cc(C(N)=O)ncn3)CC2)c1 (racemic) [Ex. 030*] | 247 nM |  |  | 4.17 µM |  |
| N#Cc1ccnc(N2CCC(C(=O)N3OCCC3c3cncc(CO)c3)CC2)n1 (racemic) [Ex. 031*] | 51.5 nM |  |  | 0.395 µM |  |
| NC(=O)c1cc(N2CCC(C(=O)N3OCCC3c3cncc(CO)c3)CC2)ncn1 (racemic) [Ex. 032*, 6-[4-[3-[5-(Hydroxymethyl)-3-pyridyl]isoxazolidine-2-carbonyl]-1-piperidyl]pyrimidine-4-carboxamide TFA salt] | 180 nM |  |  | 2.44 µM |  |
| N#Cc1ccnc(N2CCC(C(=O)N3OCCC3c3ccc(N)nc3)CC2)n1 (racemic) [Ex. 037*] | 31.5 nM |  |  | 0.177 µM |  |
| NC(=O)c1cc(N2CCC(C(=O)N3OCCC3c3cncc(F)c3)CC2)ncn1 (racemic) [Ex. 048*] | 33.2 nM |  |  | 0.133 µM |  |
| NC(=O)c1ccnc(N2CCC(C(=O)N3OCCC3c3cncc(F)c3)CC2)n1 (racemic) [Ex. 050*] | 26.7 nM |  |  | 0.0329 µM |  |
| N#Cc1ccnc(N2CCC(C(=O)N3OCCC3c3ccc4nccn4c3)CC2)n1 (racemic) [Example 014, 2-[4-[3-imidazo[1,2-a]pyridin-6-ylisoxazolidine-2-carbonyl]-1-piperidyl] pyrimidine-4-carbonitrile TFA salt] | 729 nM |  |  | > 10 µM |  |
| NC(=O)c1ccnc(N2CCC(C(=O)N3OCCC3c3cncc(F)c3)CC2)n1 (single isomer, unassigned) [Ex. 069] | > 33000 nM |  |  | > 10 µM |  |
| Cc1ccc(C2CCON2C(=O)C2CCN(c3ncc(C)c(C(N)=O)n3)CC2F)cn1 (single isomer, unassigned) [Ex. 185] | 297 nM |  | 1.15 µM |  |  |
| Cc1ccc(C2CCON2C(=O)C2CCN(c3ncc(C)c(C(N)=O)n3)CC2F)cn1 (single isomer, unassigned) [compound 186] | 38.4 nM |  | 0.148 µM |  |  |
| N#Cc1cncc([C@@H]2CCON2C(=O)C2CCN(c3cc(C(N)=O)ncn3)CC2)c1 [Ex. 001] | 32.6 nM |  |  | 0.133 µM |  |

More lines, main results first:

| IC50 ([1]; Table 1) | IC50 ([1]; Key compound table 4) | Molecule | IC50 (U937 cells; Table 2, read-out: U937 IC50) | IC50 (U937 cells; [2]) | IC50 (U937 cells; Homo sapiens, U-937, Key compound table 4, read-out: U937 IC50 (uM) Mean) |
| --- | --- | --- | --- | --- | --- |
| 26.3 nM |  | N#Cc1cncc([C@@H]2CCON2C(=O)C2(F)CCN(c3nccc(C#N)n3)CC2(F)F)c1 (mixture of isomers) [Ex. 123] |  | 0.0442 µM |  |
| 48.9 nM |  | NC(=O)c1ccnc(N2CCC(C(=O)N3OCCC3c3ccc(N)nc3)CC2)n1 (racemic) [Ex. 036*] |  | 0.198 µM |  |
| 89.9 nM |  | NC(=O)c1cc(N2CCC(C(=O)N3OCC[C@H]3c3ccc(N)nc3)CC2)ncn1 (racemic) [Ex. 038*] |  | 1.71 µM |  |
| 65.1 nM |  | Cn1cc(C2CCON2C(=O)C2CCN(c3nccc(C(N)=O)n3)CC2)cn1 (racemic) [Ex. 046*] |  | 0.605 µM |  |
| 64.9 nM |  | Cn1cc(C2CCON2C(=O)C2CCN(c3nccc(C#N)n3)CC2)cn1 (racemic) [Ex. 047*] |  | 0.549 µM |  |
| 9.99 nM |  | N#Cc1cc(N2CCC(C(=O)N3OCCC3c3cncc(F)c3)CC2)ncn1 (racemic) [Ex. 049*] |  | 0.0411 µM |  |
| 134 nM |  | COC(=O)c1ccnc(N2CCC(C(=O)N3OCCC3c3cncc(F)c3)CC2)n1 (racemic) [Ex. 051*, Methyl 2-[4-[3-(5-fluoro-3-pyridyl)isoxazolidine-2-carbonyl]-1-piperidyl]pyrimidine-4-carboxylate] |  | 0.678 µM |  |
| 767 nM |  | O=C(O)c1ccnc(N2CCC(C(=O)N3OCCC3c3cncc(F)c3)CC2)n1 (racemic) [Ex. 054*] |  | > 10 µM |  |
| 64.9 nM |  | Cn1ccc(C2CCON2C(=O)C2CCN(c3nccc(C#N)n3)CC2)n1 (racemic) [Example 007, 2-[4-[3-(1-methylpyrazol-3-yl)isoxazolidine-2-carbonyl]-1-piperidyl] pyrimidine-4-carbonitrile] |  | 2.42 µM |  |
| 13100 nM |  | NC(=O)c1cc(N2CCC(C(=O)N3OCCC3c3ccc4nccn4c3)CC2)ncn1 (racemic) [Example 015, 6-[4-[3-imidazo[1,2-a]pyridin-6-ylisoxazolidine-2-carbonyl]-1-piperidyl] pyrimidine-4-carboxamide TFA salt] |  |  |  |
| 156 nM |  | NC(=O)c1ccnc(N2CCC(C(=O)N3OCCC3C3CCCOC3)CC2)n1 (racemic) [Example 024, 2-[4-[3-Tetrahydropyran-3-ylisoxazolidine-2-carbonyl]-1-piperidyl]pyrimidine-4-carboxamide] |  | 0.834 µM |  |
| 193 nM |  | CNC(=O)c1cncc(C2CCON2C(=O)C2CCN(c3nccc(C#N)n3)CC2)c1 (racemic) [Example 042, 5-[2-[1-(4-cyanopyrimidin-2-yl)piperidine-4-carbonyl]isoxazolidin-3-yl]-N-methyl-pyridine-3-carboxamide] |  | 6.01 µM |  |
| 30.5 nM |  | N#Cc1cncc([C@@H]2CCON2C(=O)[C@@H]2CCN(c3nccc(C(N)=O)n3)C[C@@H]2F)c1 (single isomer, unassigned) [Ex. 095] |  | 0.12 µM |  |
| 22 nM |  | Cc1ccc([C@@H]2CCON2C(=O)C2CCN(c3cc(C(N)=O)ncn3)CC2)s1 (single isomer, unassigned) [Ex. 176] |  | 0.00371 µM |  |
| 26 nM |  | N#Cc1cncc([C@@H]2CCON2C(=O)[C@H]2CCN(c3nccc(C(N)=O)n3)C[C@H]2F)c1 (single isomer, unassigned) [compound 96] |  | 0.204 µM |  |
| 443 nM |  | N#Cc1cncc([C@@H]2CCON2C(=O)C2CCN(c3nccc(C(=O)O)n3)CC2)c1 (single isomer, unassigned) [compound 102] |  | > 10 µM |  |
|  | 16 nM | N#Cc1cncc([C@@H]2CCON2C(=O)C2CCN(c3nccc(C(N)=O)n3)CC2)c1 [Ex. 004] |  |  | 0.022 µM |
| 4690 nM |  | N#Cc1cncc([C@@H]2CCON2C(=O)C2CCN(c3nccc(C(=O)O)n3)CC2)c1 [Ex. 009] |  | > 10 µM |  |
| 18800 nM |  | N#Cc1cncc([C@H]2CCON2C(=O)C2CCN(c3nccc(C(N)=O)n3)CC2)c1 [Ex. 016] |  |  |  |
| 24.5 nM |  | COC(=O)c1ccnc(N2CCC(C(=O)N3OCC[C@H]3c3cncc(C#N)c3)CC2)n1 [compound 100] |  |  |  |

— patent US12655139B2, “Isoxazolidines as RIPK1 inhibitors and use thereof” (SANOFI, priority 2020, dated 2026)
